Drawing on patent publication US9340555B2, “Compounds as tyrosine kinase modulators” (Allergan, Inc., priority 2009, dated 2016), this text covers IC50 for 20 compounds.

One experiment concerns the target PDGFRβ (Homo sapiens (Human), UniProt P09619). Kind of experiment: Enzymic PDGFRβ. Type of experiment: biochemical.
The target in experiment [1] is human VEGF receptor (VEGFR-2) (Homo sapiens (Human), UniProt P35968). Kind of experiment: VEGFR2 Kinase Assay (Enzymic VEGFR2). To be noted: His-VEGFR-2 cytoplasmic domain, 3.6 µM ATP. It is filed as biochemical. On the procedure:
VEGFR2 Kinase Assay The cytoplasmic domain of the human VEGF receptor (VEGFR-2) was expressed as a Histidine-tagged fusion protein following infection of insect cells using an His engineered baculovirus. […] Kinase assays were performed in 96 well microtiter plates that were coated overnight with 30 µg of poly-Glu-[…]:1) in 10 mM Phosphate Buffered Saline (PBS), pH 7.2-7.4. The plates were incubated with 1% BSA and then washed four times with PBS prior to starting the reaction. […] Reactions were initiated by the addition 0.5 ng of purified protein. Following a ten minute incubation at 25° C., the reactions were washed four times with PBS containing 0.05% Tween-20. 100 µl of a monoclonal anti-phosphotyrosine antibody-peroxidase conjugate was diluted 1:10000 in PBS-Tween-20 and added to the wells for 30 minutes. Following four washes with PBS-Tween-20, 100 µl of 0-phenylenediamine Dihydrochloride in Phosphate-citrate buffer, containing urea hydrogen peroxide, was added to the wells for 7 minutes as a colorimetric substrate for the peroxidase. […] IC50 values for compound inhibition were calculated directly from graphs of optical density (arbitrary units) versus compound concentration following subtraction of blank values.

Another experiment addresses VEGFR1 (Homo sapiens (Human), UniProt P17948). In words: Enzymic VEGFR1. Type of experiment: biochemical.
Another experiment deals with VEGFR2 (Homo sapiens (Human), UniProt P35968). In words: VEGF Stimulated Ca++ Signal In Vitro (Cellular VEGFR2, FLIPR). To be noted: HUVEC, VEGF stimulation (5 ng/mL), intracellular calcium. Type of experiment: cell-based.
Sequence of VEGFR2 (P35968 20-1356): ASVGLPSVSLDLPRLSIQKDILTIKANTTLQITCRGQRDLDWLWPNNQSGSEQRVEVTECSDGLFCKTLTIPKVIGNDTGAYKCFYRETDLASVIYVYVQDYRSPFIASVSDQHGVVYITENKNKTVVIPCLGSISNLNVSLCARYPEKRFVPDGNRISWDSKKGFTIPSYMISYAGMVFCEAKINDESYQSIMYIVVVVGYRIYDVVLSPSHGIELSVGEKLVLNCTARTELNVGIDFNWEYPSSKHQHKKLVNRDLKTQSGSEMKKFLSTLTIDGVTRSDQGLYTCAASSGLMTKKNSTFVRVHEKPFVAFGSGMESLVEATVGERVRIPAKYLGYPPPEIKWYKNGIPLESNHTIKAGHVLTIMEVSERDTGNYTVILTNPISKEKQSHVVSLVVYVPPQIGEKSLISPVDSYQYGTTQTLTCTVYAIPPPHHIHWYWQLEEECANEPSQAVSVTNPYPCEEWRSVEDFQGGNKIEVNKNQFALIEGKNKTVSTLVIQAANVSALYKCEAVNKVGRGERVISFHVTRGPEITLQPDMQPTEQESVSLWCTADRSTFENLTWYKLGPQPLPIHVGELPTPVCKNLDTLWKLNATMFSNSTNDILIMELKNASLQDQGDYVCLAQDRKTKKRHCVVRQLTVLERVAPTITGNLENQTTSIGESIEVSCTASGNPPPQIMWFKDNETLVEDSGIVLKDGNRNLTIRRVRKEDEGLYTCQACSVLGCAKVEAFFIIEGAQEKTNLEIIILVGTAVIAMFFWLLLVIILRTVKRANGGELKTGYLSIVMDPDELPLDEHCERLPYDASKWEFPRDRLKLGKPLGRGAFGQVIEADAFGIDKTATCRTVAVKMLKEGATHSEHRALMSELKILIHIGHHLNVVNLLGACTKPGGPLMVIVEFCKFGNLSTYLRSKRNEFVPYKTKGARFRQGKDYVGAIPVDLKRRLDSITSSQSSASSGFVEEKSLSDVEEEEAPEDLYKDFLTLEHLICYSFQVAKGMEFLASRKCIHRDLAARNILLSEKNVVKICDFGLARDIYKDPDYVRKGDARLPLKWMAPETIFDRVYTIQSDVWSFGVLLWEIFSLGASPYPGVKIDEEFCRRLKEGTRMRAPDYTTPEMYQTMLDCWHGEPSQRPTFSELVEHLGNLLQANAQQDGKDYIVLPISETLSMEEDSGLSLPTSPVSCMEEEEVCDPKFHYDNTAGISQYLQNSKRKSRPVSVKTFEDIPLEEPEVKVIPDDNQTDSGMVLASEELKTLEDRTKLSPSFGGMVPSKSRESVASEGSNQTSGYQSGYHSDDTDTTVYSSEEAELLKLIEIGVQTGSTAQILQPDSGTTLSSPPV

Sequence of PDGFRβ (P09619 33-1106, species assumed): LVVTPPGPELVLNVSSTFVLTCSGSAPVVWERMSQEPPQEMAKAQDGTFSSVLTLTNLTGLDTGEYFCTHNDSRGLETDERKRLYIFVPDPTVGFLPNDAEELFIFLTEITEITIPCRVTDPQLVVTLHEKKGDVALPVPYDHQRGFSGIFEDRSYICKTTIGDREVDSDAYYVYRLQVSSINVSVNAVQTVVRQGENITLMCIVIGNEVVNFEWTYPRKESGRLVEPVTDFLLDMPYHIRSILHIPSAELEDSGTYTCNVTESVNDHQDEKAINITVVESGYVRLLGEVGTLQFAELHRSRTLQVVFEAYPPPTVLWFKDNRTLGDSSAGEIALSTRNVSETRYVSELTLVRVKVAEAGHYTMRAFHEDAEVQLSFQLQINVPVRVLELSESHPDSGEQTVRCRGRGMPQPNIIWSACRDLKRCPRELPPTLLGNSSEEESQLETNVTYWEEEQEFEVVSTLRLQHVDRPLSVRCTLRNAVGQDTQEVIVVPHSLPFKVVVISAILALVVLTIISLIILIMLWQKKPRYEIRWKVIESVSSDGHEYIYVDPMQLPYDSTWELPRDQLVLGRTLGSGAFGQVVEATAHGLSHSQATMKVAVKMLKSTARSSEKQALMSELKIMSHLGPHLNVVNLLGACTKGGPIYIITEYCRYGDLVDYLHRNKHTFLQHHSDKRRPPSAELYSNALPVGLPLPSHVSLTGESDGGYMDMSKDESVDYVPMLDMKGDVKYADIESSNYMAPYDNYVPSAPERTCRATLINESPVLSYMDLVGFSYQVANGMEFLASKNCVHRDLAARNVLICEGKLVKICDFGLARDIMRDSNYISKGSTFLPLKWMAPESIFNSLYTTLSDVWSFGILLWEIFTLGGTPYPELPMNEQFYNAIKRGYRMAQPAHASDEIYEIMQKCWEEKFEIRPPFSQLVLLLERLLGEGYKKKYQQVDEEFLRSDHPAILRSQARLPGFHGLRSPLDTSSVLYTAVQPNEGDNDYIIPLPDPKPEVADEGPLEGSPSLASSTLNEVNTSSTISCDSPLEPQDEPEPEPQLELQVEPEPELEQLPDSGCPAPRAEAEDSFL
Sequence of VEGFR1 (P17948 27-1338, species assumed): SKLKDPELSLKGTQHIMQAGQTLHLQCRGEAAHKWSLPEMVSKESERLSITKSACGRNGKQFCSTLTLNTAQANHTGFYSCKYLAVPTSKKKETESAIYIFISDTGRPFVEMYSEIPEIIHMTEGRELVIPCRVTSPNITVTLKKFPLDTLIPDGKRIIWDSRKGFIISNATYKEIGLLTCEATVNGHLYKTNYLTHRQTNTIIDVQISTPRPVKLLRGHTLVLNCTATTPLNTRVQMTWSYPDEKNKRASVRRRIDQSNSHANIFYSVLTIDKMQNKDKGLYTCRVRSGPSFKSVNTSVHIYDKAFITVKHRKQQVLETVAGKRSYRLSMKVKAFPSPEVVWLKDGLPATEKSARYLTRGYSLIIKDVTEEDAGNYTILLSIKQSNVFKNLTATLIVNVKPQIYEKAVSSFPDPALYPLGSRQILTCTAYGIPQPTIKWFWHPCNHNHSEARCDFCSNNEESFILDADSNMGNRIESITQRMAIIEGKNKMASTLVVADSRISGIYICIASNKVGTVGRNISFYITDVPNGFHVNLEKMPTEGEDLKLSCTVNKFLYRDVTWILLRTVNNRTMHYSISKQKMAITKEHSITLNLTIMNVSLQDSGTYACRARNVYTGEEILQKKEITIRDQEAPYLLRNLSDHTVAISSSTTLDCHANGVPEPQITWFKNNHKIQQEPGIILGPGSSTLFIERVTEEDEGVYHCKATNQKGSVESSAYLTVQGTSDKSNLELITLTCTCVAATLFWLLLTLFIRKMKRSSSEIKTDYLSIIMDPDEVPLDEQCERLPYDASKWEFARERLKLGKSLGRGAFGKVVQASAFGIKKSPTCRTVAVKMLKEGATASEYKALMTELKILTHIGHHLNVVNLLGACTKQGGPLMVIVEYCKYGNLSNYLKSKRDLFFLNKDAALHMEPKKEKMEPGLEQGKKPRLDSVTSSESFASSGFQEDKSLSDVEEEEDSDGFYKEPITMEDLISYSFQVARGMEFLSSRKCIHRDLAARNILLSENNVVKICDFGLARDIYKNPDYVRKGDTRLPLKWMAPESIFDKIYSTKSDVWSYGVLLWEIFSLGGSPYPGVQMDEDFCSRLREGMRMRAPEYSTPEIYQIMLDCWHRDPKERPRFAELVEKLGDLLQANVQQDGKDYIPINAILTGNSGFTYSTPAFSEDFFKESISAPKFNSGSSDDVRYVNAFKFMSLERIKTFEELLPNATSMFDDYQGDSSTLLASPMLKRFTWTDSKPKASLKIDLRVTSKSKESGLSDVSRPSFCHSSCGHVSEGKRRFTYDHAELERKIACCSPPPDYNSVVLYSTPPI
Sequence of human VEGF receptor (VEGFR-2) (P35968 786-1356): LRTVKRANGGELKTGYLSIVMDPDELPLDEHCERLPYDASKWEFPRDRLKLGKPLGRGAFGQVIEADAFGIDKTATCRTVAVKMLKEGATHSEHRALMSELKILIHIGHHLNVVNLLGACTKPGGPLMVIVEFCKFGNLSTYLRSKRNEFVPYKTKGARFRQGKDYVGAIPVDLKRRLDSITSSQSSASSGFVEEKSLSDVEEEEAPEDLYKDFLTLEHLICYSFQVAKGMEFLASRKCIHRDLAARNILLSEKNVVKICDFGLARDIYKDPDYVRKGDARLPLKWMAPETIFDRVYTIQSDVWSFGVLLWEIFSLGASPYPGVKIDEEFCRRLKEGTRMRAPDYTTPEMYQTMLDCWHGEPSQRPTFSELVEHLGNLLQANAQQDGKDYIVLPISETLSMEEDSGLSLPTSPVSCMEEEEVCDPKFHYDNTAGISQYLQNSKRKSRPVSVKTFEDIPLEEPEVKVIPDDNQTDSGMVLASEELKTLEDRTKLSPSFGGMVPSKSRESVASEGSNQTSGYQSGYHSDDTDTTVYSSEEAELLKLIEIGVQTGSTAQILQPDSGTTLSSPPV

With `Cc1ccc(F)c(NC(=O)Nc2ccc(Oc3ccnc4cc(C(=O)NCCCc5nn[nH]n5)sc34)cc2)c1` [Example 12, 7-[4-({[(2-fluoro-5-methylphenyl)amino]carbonyl}amino)phenoxy]-N-[3-(2H-tetrazol-5-yl)propyl]thieno[3,2-b]pyridine-2-carboxamide], the concentration for half-maximal inhibition (IC50) against PDGFRβ amounted to 20 nM; in experiment [1] it was 3 nM; on VEGFR1, 4 nM; at VEGFR2 it was 126 nM.
For `Cc1ccc(F)c(NC(=O)Nc2ccc(Oc3ccnc4cc(C(=O)NCCc5nn[nH]n5)sc34)cc2)c1` [Example 13, 7-[4-({[(2-fluoro-5-methylphenyl)amino]carbonyl}amino)phenoxy]-N-[2-(2H-tetrazol-5-yl)ethyl]thieno[3,2-b]pyridine-2-carboxamide] the same measures were 19 nM, 6 nM, 10 nM and 97 nM.
For `CCOC(=O)CN1CCN(CCCNC(=O)c2cc3nccc(Oc4ccc(NC(=O)Nc5cc(C)ccc5F)cc4)c3s2)CC1` [Example 14, ethyl (4-{3-[({7-[4-({[(2-fluoro-5-methylphenyl)amino]carbonyl}amino)phenoxy]thieno[3,2-b]pyridin-2-yl}carbonyl)amino]propyl}piperazin-1-yl)acetate] the same measures were 13 nM, 4 nM, 5 nM and 34 nM.
The matching figures for `Cc1ccc(F)c(NC(=O)Nc2ccc(Oc3ccnc4cc(C(=O)NCCCN5CCCC(CO)C5)sc34)cc2)c1` (stereo not shown) [Example 15, 7-[4-({[(2-fluoro-5-methylphenyl)amino]carbonyl}amino)phenoxy]-N-{3-[3-(hydroxymethyl)piperidin-1-yl]propyl}thieno[3,2-b]pyridine-2-carboxamide]: 10 nM, 3 nM, 3 nM and 39 nM.
For `COC(=O)CN(CCCNC(=O)c1cc2nccc(Oc3ccc(NC(=O)Nc4cc(C)ccc4F)cc3)c2s1)CC(=O)OC` [Example 19, dimethyl 2,2′-({3-[({7-[4-({[(2-fluoro-5-methylphenyl)amino]carbonyl}amino)phenoxy]thieno[3,2-b]pyridin-2-yl}carbonyl)amino]propyl}imino)diacetate], the IC50 against PDGFRβ turned out to be 14 nM; in experiment [1] it was 4 nM; against VEGFR1 it was 9 nM; on VEGFR2 it was 0.3 nM.
For `CCOC(=O)N1CCN(CCNC(=O)c2cc3nccc(Oc4ccc(NC(=O)Nc5cc(C)ccc5F)c(F)c4)c3s2)CC1` [Example 23, ethyl 4-{2-[({7-[3-fluoro-4-({[(2-fluoro-5-methylphenyl)amino]carbonyl}amino)phenoxy]thieno[3,2-b]pyridin-2-yl}carbonyl)amino]ethyl}piperazine-1-carboxylate] the same measures were 14 nM, 7 nM, 13 nM and 9 nM.
For `COC(=O)C1CCN(C(=O)c2cc3nccc(Oc4ccc(NC(=O)Nc5cc(C)ccc5F)c(F)c4)c3s2)C1` (stereo not shown) [Example 28, methyl 1-({7-[3-fluoro-4-({[(2-fluoro-5-methylphenyl)amino]carbonyl}amino)phenoxy]thieno[3,2-b]pyridin-2-yl}carbonyl)pyrrolidine-3-carboxylate], the values for the IC50 (against PDGFRβ; in experiment [1]; on VEGFR1) were 17 nM, 5 nM and 8 nM, respectively.
For `CCOC(=O)CN1CCN(C(=O)CN2CCN(C(=O)c3cc4nccc(Oc5ccc(NC(=O)Nc6cc(C)ccc6F)c(F)c5)c4s3)CC2)CC1` [Example 29, ethyl (4-{[4-({7-[3-fluoro-4-({[(2-fluoro-5-methylphenyl)amino]carbonyl}amino)phenoxy]thieno[3,2-b]pyridin-2-yl}carbonyl)piperazin-1-yl]acetyl}piperazin-1-yl)acetate] the same measures were 13 nM, 5 nM and 10 nM.
In the case of `CCOC(=O)CN1CCN(C(=O)c2cc3nccc(Oc4ccc(NC(=O)Nc5cc(C)ccc5F)c(F)c4)c3s2)CC1` [Example 30, ethyl [4-({7-[3-fluoro-4-({[(2-fluoro-5-methylphenyl)amino]carbonyl}amino)phenoxy]thieno[3,2-b]pyridin-2-yl}carbonyl)piperazin-1-yl]acetate], the IC50 was 17 nM against PDGFRβ, 7 nM in experiment [1] and 112 nM on VEGFR1.
The matching figures for `COC(=O)CNCCNC(=O)c1cc2nccc(Oc3ccc(NC(=O)Nc4cc(C)ccc4F)c(F)c3)c2s1` [Example 31, methyl ({2-[({7-[3-fluoro-4-({[(2-fluoro-5-methylphenyl)amino]carbonyl}amino)phenoxy]thieno[3,2-b]pyridin-2-yl}carbonyl)amino]ethyl}amino)acetate]: 13 nM, 9 nM and 9 nM.
For `Cc1ccc(F)c(NC(=O)Nc2ccc(Oc3ccnc4cc(C(=O)NCCN)sc34)cc2F)c1` [Example 32, N-(2-aminoethyl)-7-[3-fluoro-4-({[(2-fluoro-5-methylphenyl)amino]carbonyl}amino)phenoxy]thieno[3,2-b]pyridine-2-carboxamide] the same measures were 15 nM, 4 nM and 11 nM.
For `Cc1ccc(F)c(NC(=O)Nc2ccc(Oc3ccnc4cc(C(=O)NCCNC(=O)OC(C)(C)C)sc34)cc2F)c1` [Example 33], the IC50 is 69 nM against PDGFRβ, 24 nM in experiment [1] and 60 nM against VEGFR1.
The matching figures for `Cc1ccc(F)c(NC(=O)Nc2ccc(Oc3ccnc4cc(C(=O)NCCCN5CCN(C)CC5)sc34)cc2F)c1` [Example 34, 7-[3-fluoro-4-({[(2-fluoro-5-methylphenyl)amino]carbonyl}amino)phenoxy]-N-[3-(4-methylpiperazin-1-yl)propyl]thieno[3,2-b]pyridine-2-carboxamide]: 11 nM, 3 nM and 6 nM.
As for `Cc1ccc(F)c(NC(=O)Nc2ccc(Oc3ccnc4cc(C(=O)NCCCN5CCOC(CO)C5)sc34)cc2F)c1` (stereo not shown) [Example 37, 7-[3-fluoro-4-({[(2-fluoro-5-methylphenyl)amino]carbonyl}amino)phenoxy]-N-{3-[2-(hydroxymethyl)morpholin-4-yl]propyl}thieno[3,2-b]pyridine-2-carboxamide], the IC50 in experiment [1] stood at 7 nM; at VEGFR1 it was 9 nM; on VEGFR2, 1 nM.
The matching figures for `Cc1ccc(F)c(NC(=O)Nc2ccc(Oc3ccnc4cc(C(=O)NCCCN5CCC(O)CC5)sc34)cc2F)c1` [Example 38, 7-[3-fluoro-4-({[(2-fluoro-5-methylphenyl)amino]carbonyl}amino)phenoxy]-N-[3-(4-hydroxypiperidin-1-yl)propyl]thieno[3,2-b]pyridine-2-carboxamide]: 7 nM, 8 nM and 14 nM.
Take `COC(=O)[C@@H]1C[C@@H](O)CN1CCCNC(=O)c1cc2nccc(Oc3ccc(NC(=O)Nc4cc(C)ccc4F)c(F)c3)c2s1` [Example 39, methyl (2S,4R)-1-{3-[({7-[3-fluoro-4-({[(2-fluoro-5-methylphenyl)amino]carbonyl}amino)phenoxy]thieno[3,2-b]pyridin-2-yl}carbonyl)amino]propyl}-4-hydroxypyrrolidine-2-carboxylate]: the half-maximal inhibitory concentration (IC50) in experiment [1] was 5 nM; on VEGFR1, 8 nM; at VEGFR2, 2 nM.
For `Cc1ccc(F)c(NC(=O)Nc2ccc(Oc3ccnc4cc(C(=O)NCCCN5CCC(C(=O)O)C5)sc34)cc2F)c1` (stereo not shown) [Example 50, 1-{3-[({7-[3-fluoro-4-({[(2-fluoro-5-methylphenyl)amino]carbonyl}amino)phenoxy]thieno[3,2-b]pyridin-2-yl}carbonyl)amino]propyl}pyrrolidine-3-carboxylic acid] the same measures were 16 nM, 18 nM and 80 nM.
Consider `CCOC(=O)CCCNC(=O)c1cc2nccc(Oc3ccc(NC(=O)Nc4cc(C)ccc4F)c(F)c3)c2s1` [Example 57, ethyl 4-[({7-[3-fluoro-4-({[(2-fluoro-5-methylphenyl)amino]carbonyl}amino)phenoxy]thieno[3,2-b]pyridin-2-yl}carbonyl)amino]butanoate], for which the results for the concentration for half-maximal inhibition (IC50) (in experiment [1]; at VEGFR1; on VEGFR2) were 14 nM, 15 nM and 1 nM, respectively.
The matching figures for `Cc1ccc(F)c(NC(=O)Nc2ccc(Oc3ccnc4cc(C(=O)NCCCC(=O)O)sc34)cc2)c1` [Example 65, 4-[({7-[4-({[(2-fluoro-5-methylphenyl)amino]carbonyl}amino)phenoxy]thieno[3,2-b]pyridin-2-yl}carbonyl)amino]butanoic acid]: 12 nM, 7 nM and 2 nM.
As for `CCN(CC)CCNC(=O)c1cc2nccc(Oc3ccc(NC(=O)Nc4cc(C)ccc4F)cc3)c2s1` [Example 69, N-[2-(diethylamino)ethyl]-7-[4-({[(2-fluoro-5-methylphenyl)amino]carbonyl}amino)phenoxy]thieno[3,2-b]pyridine-2-carboxamide], the IC50 at PDGFRβ is 13 nM; in experiment [1] it was 4 nM; at VEGFR1, 5 nM; on VEGFR2, 11 nM.
